Laboratory results as given in ChEMBL document CHEMBL5214927, “Recent advance on carbamate-based cholinesterase inhibitors as potential multifunctional agents against Alzheimer's disease” (Eur J Med Chem, 2022).

Key:
[1] = target: T1, Amine oxidase [flavin-containing] B (Homo sapiens, UniProt P27338); test: Displacement of 14C-phenylethylamine from MAO-B (unknown origin) preincubated for 60 mins followed by substrate addition measured after 20 mins in presence of clorgyline by liquid scintillation counting method
T1 sequence (P27338 whole entry): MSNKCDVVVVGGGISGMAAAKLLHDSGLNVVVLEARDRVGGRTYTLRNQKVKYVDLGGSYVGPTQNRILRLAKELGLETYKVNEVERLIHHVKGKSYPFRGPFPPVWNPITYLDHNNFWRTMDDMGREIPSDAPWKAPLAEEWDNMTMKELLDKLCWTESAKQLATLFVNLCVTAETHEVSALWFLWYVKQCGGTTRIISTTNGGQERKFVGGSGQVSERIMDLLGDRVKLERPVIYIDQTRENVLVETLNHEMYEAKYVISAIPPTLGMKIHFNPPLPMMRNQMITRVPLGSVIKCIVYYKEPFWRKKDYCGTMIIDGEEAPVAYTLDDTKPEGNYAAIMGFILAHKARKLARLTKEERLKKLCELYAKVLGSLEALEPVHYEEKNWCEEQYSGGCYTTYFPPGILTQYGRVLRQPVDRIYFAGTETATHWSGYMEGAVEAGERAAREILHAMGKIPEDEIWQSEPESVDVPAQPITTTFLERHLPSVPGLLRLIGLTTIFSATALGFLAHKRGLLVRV

[2] = target: T2, Cholinesterase (Equus caballus, UniProt P81908); test: Inhibition of equine serum BChE using butyrylthiocholine as substrate preincubated for 60 mins by Ellman's method
T2 sequence (P81908 whole entry): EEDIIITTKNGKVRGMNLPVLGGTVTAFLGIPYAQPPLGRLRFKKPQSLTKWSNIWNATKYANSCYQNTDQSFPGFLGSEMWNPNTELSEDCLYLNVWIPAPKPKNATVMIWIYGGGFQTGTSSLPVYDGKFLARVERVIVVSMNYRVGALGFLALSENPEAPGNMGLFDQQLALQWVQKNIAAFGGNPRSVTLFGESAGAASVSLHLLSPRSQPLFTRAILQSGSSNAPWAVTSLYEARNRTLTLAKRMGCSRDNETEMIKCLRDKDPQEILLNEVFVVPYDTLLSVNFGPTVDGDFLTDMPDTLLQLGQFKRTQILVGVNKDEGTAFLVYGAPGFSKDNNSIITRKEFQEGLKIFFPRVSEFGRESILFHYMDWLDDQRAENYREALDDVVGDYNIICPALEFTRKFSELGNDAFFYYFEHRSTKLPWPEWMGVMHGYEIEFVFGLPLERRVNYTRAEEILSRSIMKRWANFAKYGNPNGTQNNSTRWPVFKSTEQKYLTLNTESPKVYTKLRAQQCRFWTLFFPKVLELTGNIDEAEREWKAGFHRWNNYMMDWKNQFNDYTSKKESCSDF

[3] = target: T3, Amine oxidase [flavin-containing] A (Homo sapiens, UniProt P21397); test: Displacement of 14C-5-hydroxytryptamine creatinine disulfate from MAO-A (unknown origin) preincubated for 60 mins followed by substrate addition measured after 30 mins in presence of selegiline by liquid scintillation counting method
T3 sequence (P21397 whole entry): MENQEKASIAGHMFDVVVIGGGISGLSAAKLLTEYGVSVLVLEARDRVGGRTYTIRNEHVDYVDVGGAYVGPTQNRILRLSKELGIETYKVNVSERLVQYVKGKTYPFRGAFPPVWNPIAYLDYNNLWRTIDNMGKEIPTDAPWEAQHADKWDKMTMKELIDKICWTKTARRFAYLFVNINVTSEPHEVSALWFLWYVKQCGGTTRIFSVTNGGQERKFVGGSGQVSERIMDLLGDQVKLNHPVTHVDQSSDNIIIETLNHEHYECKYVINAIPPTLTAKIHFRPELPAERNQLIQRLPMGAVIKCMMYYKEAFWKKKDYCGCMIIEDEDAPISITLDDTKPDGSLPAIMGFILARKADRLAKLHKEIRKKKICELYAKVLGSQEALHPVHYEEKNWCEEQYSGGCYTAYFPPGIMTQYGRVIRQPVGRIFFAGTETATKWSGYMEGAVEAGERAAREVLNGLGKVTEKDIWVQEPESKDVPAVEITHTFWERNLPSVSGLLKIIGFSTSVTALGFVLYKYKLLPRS

[4] = Selectivity index, ratio of IC50 for human red blood cell AChE to IC50 for equine serum BChE
[5] = target: Acetylcholinesterase (Homo sapiens, UniProt P22303); test: Inhibition of recombinant human AChE using acetylthiocholine as substrate preincubated for 20 mins followed by substrate addition measured after 6 mins by Ellman's method
Acetylcholinesterase (Homo sapiens, UniProt P22303), sequence (P22303 whole entry): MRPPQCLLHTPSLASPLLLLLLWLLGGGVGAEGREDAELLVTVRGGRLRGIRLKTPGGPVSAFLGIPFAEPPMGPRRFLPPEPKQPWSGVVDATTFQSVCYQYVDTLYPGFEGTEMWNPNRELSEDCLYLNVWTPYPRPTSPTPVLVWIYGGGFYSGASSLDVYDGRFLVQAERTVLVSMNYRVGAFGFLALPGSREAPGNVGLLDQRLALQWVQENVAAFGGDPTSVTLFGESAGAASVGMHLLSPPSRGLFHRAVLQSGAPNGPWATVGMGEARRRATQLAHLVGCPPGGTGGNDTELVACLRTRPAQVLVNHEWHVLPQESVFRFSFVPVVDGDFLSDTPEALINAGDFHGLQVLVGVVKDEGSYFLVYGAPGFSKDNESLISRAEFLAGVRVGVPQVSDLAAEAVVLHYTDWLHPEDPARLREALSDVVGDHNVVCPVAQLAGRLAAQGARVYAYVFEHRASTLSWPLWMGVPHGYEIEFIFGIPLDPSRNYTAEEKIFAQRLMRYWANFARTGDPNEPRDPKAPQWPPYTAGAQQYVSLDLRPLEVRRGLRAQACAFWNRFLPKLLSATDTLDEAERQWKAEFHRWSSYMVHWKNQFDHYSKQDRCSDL

[6] = target: T2, Cholinesterase; test: Inhibition of horse BChE using butyrylthiocholine as substrate measured for 5 mins by Ellman's method
[7] = target: T4, Acetylcholinesterase (Rattus norvegicus, UniProt P37136); test: Inhibition of Sprague-Dawley rat cortex AChE using acetylthiocholine iodide as substrate incubated for 15 mins in presence of iso-OMPA inhibitor by Ellman's method
T4 sequence (P37136 whole entry): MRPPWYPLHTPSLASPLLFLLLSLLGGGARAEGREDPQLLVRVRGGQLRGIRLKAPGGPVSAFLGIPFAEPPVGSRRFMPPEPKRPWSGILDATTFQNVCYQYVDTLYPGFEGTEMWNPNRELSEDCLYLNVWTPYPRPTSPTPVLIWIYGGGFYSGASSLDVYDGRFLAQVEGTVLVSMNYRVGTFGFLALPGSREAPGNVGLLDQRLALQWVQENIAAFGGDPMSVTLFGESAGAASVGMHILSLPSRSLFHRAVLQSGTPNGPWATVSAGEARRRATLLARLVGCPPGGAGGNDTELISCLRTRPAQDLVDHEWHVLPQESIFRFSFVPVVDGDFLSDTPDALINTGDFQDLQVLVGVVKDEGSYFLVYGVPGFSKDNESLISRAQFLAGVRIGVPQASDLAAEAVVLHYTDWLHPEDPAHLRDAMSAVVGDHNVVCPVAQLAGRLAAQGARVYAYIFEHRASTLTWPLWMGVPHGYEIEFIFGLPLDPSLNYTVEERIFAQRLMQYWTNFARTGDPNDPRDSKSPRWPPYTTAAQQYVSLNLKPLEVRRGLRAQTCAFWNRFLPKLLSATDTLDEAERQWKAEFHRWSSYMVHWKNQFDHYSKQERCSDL

[8] = target: T5, Butyrylcholinesterase (Rattus norvegicus, UniProt Q9JKC1); test: Inhibition of Sprague-Dawley rat serum BChE using butyrylthiocholine iodide as substrate incubated for 15 mins by Ellman's method
T5 sequence (Q9JKC1 whole entry): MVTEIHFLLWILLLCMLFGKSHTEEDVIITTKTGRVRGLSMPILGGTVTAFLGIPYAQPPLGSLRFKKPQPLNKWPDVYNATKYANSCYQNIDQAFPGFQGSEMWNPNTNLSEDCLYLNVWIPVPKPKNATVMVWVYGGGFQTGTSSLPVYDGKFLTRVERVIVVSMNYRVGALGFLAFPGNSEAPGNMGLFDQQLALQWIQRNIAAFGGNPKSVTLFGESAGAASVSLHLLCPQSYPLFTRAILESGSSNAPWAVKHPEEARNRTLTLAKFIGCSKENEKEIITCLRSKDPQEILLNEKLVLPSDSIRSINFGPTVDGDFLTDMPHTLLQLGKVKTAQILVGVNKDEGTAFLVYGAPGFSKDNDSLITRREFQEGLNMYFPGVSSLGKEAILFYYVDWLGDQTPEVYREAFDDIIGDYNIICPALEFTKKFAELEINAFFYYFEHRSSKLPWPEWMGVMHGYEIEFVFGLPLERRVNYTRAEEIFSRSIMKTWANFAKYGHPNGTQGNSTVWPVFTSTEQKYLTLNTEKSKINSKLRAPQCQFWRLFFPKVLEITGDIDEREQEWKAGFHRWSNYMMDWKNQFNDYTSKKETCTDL

[9] = target: T4, Acetylcholinesterase; test: Inhibition of rat AChE
[10] = target: T5, Butyrylcholinesterase; test: Inhibition of rat BChE
[11] = target: Acetylcholinesterase and butyrylcholinesterase (AChE and BChE) (Rattus norvegicus) (UniProt P37136+Q9JKC1); test: Selectivity index, ratio of IC50 for rat AChE to IC50 for rat BChE; format: protein assay
Acetylcholinesterase and butyrylcholinesterase (AChE and BChE) (Rattus norvegicus), sequence (Q9JKC1 1-597, one chain of several): as the sequence (Q9JKC1 whole entry) above

[12] = target: Acetylcholinesterase (Electrophorus electricus, UniProt O42275); test: Inhibition of electric eel AChE using acetylthiocholine iodide as substrate preincubated for 5 mins followed by substrate addition measured after 2 mins by Ellman's method
Acetylcholinesterase (Electrophorus electricus, UniProt O42275), sequence (O42275 whole entry): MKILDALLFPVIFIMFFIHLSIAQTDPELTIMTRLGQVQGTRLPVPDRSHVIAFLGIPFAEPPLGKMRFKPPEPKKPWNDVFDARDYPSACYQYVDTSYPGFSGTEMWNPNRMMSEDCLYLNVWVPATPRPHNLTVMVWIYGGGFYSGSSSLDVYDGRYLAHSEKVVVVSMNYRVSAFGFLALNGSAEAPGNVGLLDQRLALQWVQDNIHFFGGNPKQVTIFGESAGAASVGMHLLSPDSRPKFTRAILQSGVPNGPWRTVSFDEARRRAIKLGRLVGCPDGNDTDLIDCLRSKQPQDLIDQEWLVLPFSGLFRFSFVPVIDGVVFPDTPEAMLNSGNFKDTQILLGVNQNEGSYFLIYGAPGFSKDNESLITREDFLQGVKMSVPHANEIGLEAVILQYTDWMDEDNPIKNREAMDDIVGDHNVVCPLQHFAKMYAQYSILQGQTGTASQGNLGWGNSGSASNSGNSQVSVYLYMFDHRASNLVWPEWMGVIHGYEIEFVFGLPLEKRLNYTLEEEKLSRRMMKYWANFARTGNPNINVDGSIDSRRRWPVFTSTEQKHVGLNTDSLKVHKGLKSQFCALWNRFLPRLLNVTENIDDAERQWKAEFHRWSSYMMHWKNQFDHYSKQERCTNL

C#CCN(C)C(C)Cc1cccc(OC(=O)N(C)CC)c1 (configuration not stated) gave an IC50 [1] of 100 nM, an IC50 [2] of 1500 nM and an IC50 [3] of 120 nM. The Ratio IC50 [4] was 153.
In the case of CC[C@@]1(c2cccc(OC(=O)Nc3ccccc3)c2)CCCCN(C)C1, the IC50 [5] is reported as 274 nM.
Work on O=C(Nc1ccccc1)Oc1cccc(CN2CCN(c3ccccc3)CC2)c1 yielded an IC50 [6] of 2000 nM.
O=C(Oc1ccc(/C=C/c2cc(OC(=O)N3CCN(Cc4ccccc4)CC3)cc(OC(=O)N3CCN(Cc4ccccc4)CC3)c2)cc1)N1CCN(Cc2ccccc2)CC1 gave an IC50 [7] of 4110 nM and an IC50 [8] of 1130 nM.
In the case of CN(C)C(=O)Oc1cc(OC(=O)N(C)C)cc(C(O)CNC(C)(C)C)c1 (configuration not stated) [BAMBUTEROL], the IC50 [9] is reported as 30000 nM, the IC50 [10] is reported as 3 nM and the Ratio IC50 [11] is reported as 10000.
In the case of CCOC(=O)Nc1ccc(N2CCN(c3ccccc3OC)CC2)cc1, the IC50 [12] is reported as 93.5 nM.
